What was measured:
Format in all cases: in vivo, cat
cats with renal failure = assay: Body weight of cats with renal failure during administration
Protocol: (§1) […] The administration was conducted every day and continued basically for 6 months, and in cases where the owner desired, the administration was continued even after the test period. The Examples of the present invention include both cases where the dosing period was less than 6 months and more than 6 months.

[1] = tested on: cats with chronic renal failure; assay: Clinical score of uremic symptoms (activity + appetite) in cats with chronic renal failure; conditions: Case-G; 40 μg/head/BID; Day 14, kept up to Day 56; 3 points before
healthy cats = assay: Blood test and blood chemical analysis in healthy cats; conditions: after 7 days BID at 10-100 μg/kg oral
Protocol: In this study, 3 male cats and 2 female cats, totally 5 Japanese cats, aging 3 to 6 years old were used, which were raised in an animal hospital and for which no abnormalities were observed clinically and by blood test. The subject cats were individually placed in each cage in which each cat was allowed to take water ad libitum, and each cat was fed twice a day after measuring the necessary items. For the purpose of acclimatization, the cats were measured for blood pressure noninvasively twice a day for 2 weeks.
Blood test and blood chemical analysis were carried out as follows: Blood was collected before administration of beraprost sodium and on the next day of the termination of continuous administration for 7 days at each dose (the continuous administration of one test compound for 7 days is hereinafter referred to as “1 series”) at fasting, and analyzed. Inspection items in the blood test were RBC, WBC, PCV, Hb and Plat, and those in the blood chemical analysis were AST, ALT, T.P, BUN, Cre, Na, K and Cl.
In each administration series, the same cat was used in each administration series as the subject cat for the correctness of the evaluation of the test drug. To eliminate the influence of the test drug of the previous series, wash out period of 2 weeks were given after the termination of the respective series. […]

[2] = tested on: cats with chronic renal failure; assay: Adverse events during treatment of cats with chronic renal failure
Protocol: This pilot clinical test was performed after obtaining informed consent of the owners of the cats (clients) before the start of the test, wherein the clients received explanations about the fact that beraprost sodium had already been approved as a drug for human chronic artery obstruction and had already been marketed, and about the safety thereof. Further, giving first priority to the benefit of the patients and clients, conventional therapeutic methods were also combined appropriately for the individuals with progressed renal failure. Examples of the concomitant drugs employed include synthetic active carbons such as Covalzin, Kremezin and Nefguard; calcium preparations such as calcium carbonate; formula meals such as k/d and low-protein diets; and infusion solutions. However, in cases where there was a rational reason and consent by the owner was obtained, beraprost sodium alone was administered even to the individual with progressed renal failure. On the other hand, drugs thought to influence on the action of beraprost sodium, such as vasodilators (e.g., enalapril), diuretic (e.g., furosemide), drugs which influence on renal blood flow (e.g., dopamine) and steroids (e.g., prednisolone) were not used.
as §1

## CC#CC[C@@H](C)[C@H](O)/C=C/[C@@H]1[C@H]2c3cccc(CCCC(=O)[O-])c3O[C@H]2C[C@H]1O.[Na+] (mixture of isomers) [beraprost sodium, Sodium rac-(1R,2R,3aS,8bS)-2,3,3a,8b-tetrahydro-2-hydroxy-1-[(E)-(3S,4RS)-3-hydroxy-4-methyloct-1-en-6-ynyl]-1H-cyclopenta[b][1]benzofuran-5-butanoate]
Cats with renal failure; Case-A, age 5, month 0
  Changes in Body Weight during Administration of Beraprost Sodium: 5.2 kg
Cats with renal failure; Case-A, month 1
  Changes in Body Weight during Administration of Beraprost Sodium: 5.5 kg
Cats with renal failure; Case-A, month 2
  Changes in Body Weight during Administration of Beraprost Sodium: 5.5 kg
Cats with renal failure; Case-A, month 3
  Changes in Body Weight during Administration of Beraprost Sodium: 5.5 kg
Cats with renal failure; Case-A, month 4
  Changes in Body Weight during Administration of Beraprost Sodium: 5.7 kg
Cats with renal failure; Case-A, month 5
  Changes in Body Weight during Administration of Beraprost Sodium: 5.7 kg
Cats with renal failure; Case-A, month 6
  Changes in Body Weight during Administration of Beraprost Sodium: 6.0 kg
Cats with renal failure; Case-B, age 4, month 0
  Changes in Body Weight during Administration of Beraprost Sodium: 3.5 kg
Cats with renal failure; Case-B, month 1
  Changes in Body Weight during Administration of Beraprost Sodium: 3.6 kg
Cats with renal failure; Case-B, month 2
  Changes in Body Weight during Administration of Beraprost Sodium: 3.6 kg
Cats with renal failure; Case-B, month 3
  Changes in Body Weight during Administration of Beraprost Sodium: 3.7 kg
Cats with renal failure; Case-B, month 4
  Changes in Body Weight during Administration of Beraprost Sodium: 3.9 kg
Cats with renal failure; Case-B, month 5
  Changes in Body Weight during Administration of Beraprost Sodium: 4.0 kg
Cats with renal failure; Case-B, month 6
  Changes in Body Weight during Administration of Beraprost Sodium: 4.0 kg
Cats with renal failure; Case-B, with amelioration of uremic symptoms
  body weight: increased
Cats with renal failure; Case-C, age 16, month −1 (before administration)
  Changes in Body Weight during Administration of Beraprost Sodium: 2.8 kg
Cats with renal failure; Case-C, month 0
  Changes in Body Weight during Administration of Beraprost Sodium: 2.7 kg
Cats with renal failure; Case-C, month 1
  Changes in Body Weight during Administration of Beraprost Sodium: 2.8 kg
Cats with renal failure; Case-C, month 2
  Changes in Body Weight during Administration of Beraprost Sodium: 2.9 kg
Cats with renal failure; Case-C, month 3
  Changes in Body Weight during Administration of Beraprost Sodium: 2.9 kg
Cats with renal failure; Case-C, month 4
  Changes in Body Weight during Administration of Beraprost Sodium: 2.9 kg
Cats with renal failure; Case-C, month 5
  Changes in Body Weight during Administration of Beraprost Sodium: 3.0 kg
Cats with renal failure; Case-C, month 6
  Changes in Body Weight during Administration of Beraprost Sodium: 3.0 kg
Cats with renal failure; Case-D, age 17, month −1 (before administration)
  Changes in Body Weight during Administration of Beraprost Sodium: 4.5 kg
Cats with renal failure; Case-D, after one month
  body weight: increased
Cats with renal failure; Case-D, month 0
  Changes in Body Weight during Administration of Beraprost Sodium: 4.5 kg
Cats with renal failure; Case-D, month 1
  Changes in Body Weight during Administration of Beraprost Sodium: 4.5 kg
Cats with renal failure; Case-D, month 2
  Changes in Body Weight during Administration of Beraprost Sodium: 4.9 kg
Cats with renal failure; Case-D, month 3
  Changes in Body Weight during Administration of Beraprost Sodium: 4.9 kg
Cats with renal failure; Case-D, month 4
  Changes in Body Weight during Administration of Beraprost Sodium: 4.9 kg
Cats with renal failure; Case-D, month 5
  Changes in Body Weight during Administration of Beraprost Sodium: 4.9 kg
Cats with renal failure; Case-E, age 14, combination therapy, month 0
  Changes in Body Weight during Administration of Beraprost Sodium: 3.5 kg
Cats with renal failure; Case-E, combination therapy, month 1
  Changes in Body Weight during Administration of Beraprost Sodium: 3.8 kg
Cats with renal failure; Case-E, combination therapy, month 2
  Changes in Body Weight during Administration of Beraprost Sodium: 3.7 kg
Cats with renal failure; Case-E, combination therapy, month 3
  Changes in Body Weight during Administration of Beraprost Sodium: 3.6 kg
Cats with renal failure; Case-E, combination therapy, month 4
  Changes in Body Weight during Administration of Beraprost Sodium: 3.7 kg
Cats with renal failure; Case-E, combination therapy, month 5
  Changes in Body Weight during Administration of Beraprost Sodium: 3.7 kg
Cats with renal failure; Case-E, combination therapy, month 6
  Changes in Body Weight during Administration of Beraprost Sodium: 3.6 kg
Cats with renal failure; Case-F, age 11, combination therapy, month 0
  Changes in Body Weight during Administration of Beraprost Sodium: 4.7 kg
Cats with renal failure; Case-F, combination therapy, month 1
  Changes in Body Weight during Administration of Beraprost Sodium: 5.0 kg
Cats with renal failure; Case-F, combination therapy, month 2
  Changes in Body Weight during Administration of Beraprost Sodium: 5.0 kg
Cats with renal failure; Case-F, combination therapy, month 3
  Changes in Body Weight during Administration of Beraprost Sodium: 5.5 kg
Cats with renal failure; Case-F, combination therapy, month 4
  Changes in Body Weight during Administration of Beraprost Sodium: 5.5 kg
Cats with renal failure; Case-F, combination therapy, month 5
  Changes in Body Weight during Administration of Beraprost Sodium: 5.7 kg
Cats with renal failure; Case-F, combination therapy, month 6
  Changes in Body Weight during Administration of Beraprost Sodium: 5.8 kg
Cats with renal failure; Case-G, 40 μg/head/BID, Day 14
  body weight: 3.83 kg
Cats with renal failure; Case-G, 40 μg/head/BID, Day 56
  body weight: 3.95 kg
Cats with renal failure; Case-G, before the administration (baseline)
  body weight: 3.2 kg
[1]
  clinical score (full points 5): 5 points
Healthy cats
  blood cell count, electrolytes, renal function and liver function: no adverse change was observed
[2]; Case-A, 150 μg oral BID, 6 months
  adverse events such as diarrhea, vomiting: no adverse event
[2]; Case-B, daily administration continued for 1 and half years
  adverse events: no adverse event has been observed at all
[2]; Case-C, 150 μg oral BID alone
  adverse events such as diarrhea, vomiting: no adverse event
[2]; Case-D, 150 μg oral BID alone
  adverse events such as diarrhea, vomiting: no adverse event
[2]; Case-E, 150 μg oral BID, combination therapy
  adverse events such as diarrhea, vomiting: no adverse event
[2]; Case-F, 150 μg oral BID, combination therapy
  adverse events such as diarrhea, vomiting: no adverse event
[2]; Case-G, 40 μg/head/BID
  adverse events such as diarrhea, vomiting: no adverse event
